Results as given in patent US12366572B2, “Activation of bioluminescence by structural complementation” (Promega Corporation, priority 2013, dated 2025).
Values belong to the molecule of their own block, whether it stands above or below them. Primed or numbered codes have the meaning given here. No end group written: not given here. *: point of attachment. Dabcyl′ = N-terminal Dabcyl quencher, CN(C)c1ccc(/N=N/c2ccc(C(=O)*)cc2)cc1

Experiments:
BRD4/Histone H3.3 = BRD4/Histone H3.3 (Homo sapiens, UniProt O60885); experiment: Inhibition of NLpoly11S-BRD4 / Histone H3.3-NLpep114 interaction in HEK293T cells (Example 128)
HELA cells = experiment: NLpep86-tagged firefly luciferase constructs in HELA cells detected with NLpoly11S reagent or Fluc activity (Example 141); format: cell-based; details: 48 hours after transfection
Experimental: Validating the Use of Spontaneously Interacting NLpep86 as an Epitope Tag for Proteins Degraded by the Proteasome Experiments were conducted during development of embodiments of the present invention to validate the use of NLpep86 as a tag to monitor expression levels of proteins degraded by the proteasome. To do this, Nlpep86 was fused to firefly luciferase variants that were also fused to either one or more PEST, CL1 or ubiquitin sequences (pBC21, 22, 24-29). Each of these constructs is expected to undergo proteasome-mediated turnover to varying degrees following expression from a mutant CMV promoter (d1CMV).
The constructs pBC21, 22, 24-29 and control constructs expressing untagged firefly luciferase or untagged firefly luciferase fused to a PEST sequence (ATG082 and ATG083) were transiently transfected into HELA cells plated at 10,000 cells per well in a 96-well plate using 100 μL of DMEM+10% FBS. […] Protein expression levels were quantified in replicate wells for each construct by detecting firefly luciferase activity or by adding a detection reagent containing NLpoly11S (purified NLpoly11S added to NanoGlo®).
After a 48 hour incubation, 100 uL NanoGlo® […] reagent (90 ul of NLpoly11S in 50 ml of NanoGlo® assay reagent was added to each well and incubate for 3 minutes with shaking. Luminescence was then read on GloMax luminometer (0.5 sec/well).

NLpoly11S [1] = experiment: Dark and quencher peptides: background signal from NLpoly11S (Example 153); format: biochemical; details: NLpoly11S in NanoGlo reagent, 5 min
Experimental: A purified sample of NLpoly11S was diluted into NanoGlo reagent to give a final concentration of 2 uM. Pep86 is a high affinity luminogenic peptide and was used to induce maximum signal for NLpoly11S. Pep86 was prepared at 1 nM in PBS (pH 7.2) for a working solution. Dark peptide and quencher peptides (FIG. 180) were dissolved to 1 mM (or lower) in either PBS pH 7.2 or 150 mM NH4HCO3 and added in equal volume to the NanoGlo/NLpoly11S and then samples were read on a Tecan Infinite F500 reader using a 5 min time point.

NLpoly 5P = experiment: Titration of NLpoly 5P with NLpep88-HT (Example 47); format: biochemical; details: serial dilutions of NLpep88-HT lysate
NLpoly11S [2] = experiment: Binding of NLpoly11S to synthetic NLPep78/79 and N- or C-terminal HaloTag fusions (Examples 107, 108); details: E. coli lysates, NanoGlo + 100 uM Fz
Experimental: (§1) Fusions of NLpep78-HaloTag (78-HT) and HaloTag-NLPep78 (HT-78) were quantitated, with a GST-HaloTag® fusion (GST-HT) as a control, by labeling E. coli lysates with the HaloTag-TMR® ligand, separated by SDS-PAGE, and scanned on Typhoon. A standard curve was then created using known concentrations of GST-HT standard, and band intensities of 78-HT and HT-78 were used to determine their concentrations.
(§2) E. coli lysates containing NLpoly11S were diluted 1:107 into PBS pH 7+0.1% Prionex. Serial dilutions of 78-HT, HT-78, and synthetic NLpep78 were made in PBS pH 7+0.1% Prionex. 20 uL NLpoly11S and 20 μL of one of the NLPep were mixed and incubated at ambient temperature for 5 minutes. 40 uL NanoGlo® reagent (Promega Corporation)+100 uM Fz were added, and the samples incubates at ambient temperature for 5 min. Luminescence was measured on GlomaxMulti+ using 0.5 s integration. Data was fit to one-site, specific binding using GraphPad Prism to determine Bmax and Kd.
as §1, with “NLpep79-HaloTag (79-HT)” for “NLpep78-HaloTag (78-HT)”, “HaloTag-NLPep79 (HT-79)” for “HaloTag-NLPep78 (HT-78)”, “79-HT” for “78-HT”, “HT-79” for “HT-78”
as §2, with “79-HT, HT-79,” for “78-HT, HT-78,”, “NLpep79” for “NLpep78”

[3] = tested on: circularly permuted Nluc (CP Nluc); experiment: Inhibition of circularly permuted NanoLuc luciferase by dark peptides (Example 138); format: biochemical; details: synthetic dark peptide dose-response, NanoGlo reagent, 5 min
Experimental: Recombinant CP Nluc was prepared as a soluble fraction of an E. coli 5×-concentrated lysate (T7-promoter; overnight expression). A 10,000-fold dilution of the CP Nluc in Assay Buffer (PBS pH 7/0.01% Prionex/1 mM DTT/0.005% Tergitol) was used. Synthetically-derived dark peptides were prepared across a range of concentrations, also in the Assay Buffer. Reactions were set up using 30 μL of CP NLuc and 60 μL of Dark peptide and assayed by adding 90 μL NanoGlo® assay reagent (Promega Corporation). Luminescence was measured (5 min) on a Tecan Infinite F500 reader (100 ms integration). Three replicates were used for Dark peptide samples. Two replicates were used for buffer controls (acetic acid from peptide stocks).

NLpoly11S and NLpep114 = experiment: Inhibition of NLpoly11S/NLpep114 binding by dark peptides (Examples 136, 137); format: biochemical; details: for Signal of dark peptide with NLpoly11S on its own: no NLpep114 (Example 137)
Experimental: In FIG. 183A, 50 nM NLpoly11S was mixed with […] NLpep114 and 37.5 μM dark peptide (DP) candidate (Q-162, A-162, K-162 or E-162). NanoGlo® assay reagent (Promega Corporation) was added and incubated for 5 minutes. Luminescence was detected. In FIG. 183B, 50 nM NLpoly11S in assay buffer (PBS pH7+0.01% Prionex+1 mM DTT+0.005% Tergitol) was mixed with 7.5 μM NLpep114 (also in assay buffer) and variable amounts of dark peptide (DP) candidates Q-162 or K-162 (also in assay buffer). NanoGlo® assay reagent (Promega Corporation) was added and incubated for 5 minutes. Luminescence was detected on a Tecan Infinite F500 reader; 100 ms integration time; 5 min time point used.
In FIG. 184A, 5 nM NLpoly11S was mixed with 500 nM NLpep114 and variable amounts of a dark peptide (DP) candidate Q-162 or A-162 (n=3). NanoGlo® assay reagent (Promega Corporation) was added and incubated for 5 minutes. Luminescence was detected.
In FIG. 184B, 5 nM NLpoly11S in assay buffer was mixed with variable amounts of dark peptide (DP) candidates Q-162 or A-162 in assay buffer (no NLpep114)(n=3). NanoGlo® assay reagent (Promega Corporation) was added and incubated for 5 minutes. Luminescence was detected.

[4] = tested on: wt Oplophorus 157-169 peptide; experiment: Relative specific activity in HEK293T lysates (Example 143); format: biochemical; details: averages of Vmax and Bmax normalized to NanoLuc
Experimental: Each clone was inserted into pFN21A HaloTag® CMV Flexi® Vector (Promega G2821), and lysates were prepared as follows: 3 ml HEK293T cells that have been diluted to a concentration of 200,000 cells/ml (600,000 cells total) were plated into each well of a 6-well plate and grown overnight at 37° C. in a CO2 incubator. The following day transfection complexes of each DNA were prepared by combining […] of DNA, Opti-MEM® (Life Technologies 11058-021) to a final volume of 310 μl and 20 μl of FuGENE® HD (Promega E231a). The transfection complexes were incubated for 20 minutes and then 150 μl of each complex added in duplicate to cells. The cells were grown overnight 37° C. in a CO2 incubator. The following day, the cells were washed cells with DPBS (Life Technologies 14190-144), and 1 ml fresh DPBS added. Cells were frozen to lyse and then thawed for testing. Duplicate transfection reactions lysates were combined.
In order to compare the specific activities of Nluc (full length enzyme) to wt Oplophorusl-156 and NLpoly11S in combination with wt Oplophorus 157-169 peptide (binary proteins), substrate titrations were run for all of the samples, but for the binary samples substrate titrations were run at multiple peptide concentrations. Using this format, it was possible to calculate a Vmax value for Nluc and both Vmax and Bmax values for NLpoly11S and wt Oplophorus 1-156. Three separate experiments were run using this format and Vmax and Bmax values were normalized to the Vmax of NanoLuc. Relative specific activities (calculated as averages of Vmax and Bmax) are normalized to NanoLuc.

[5] = high purity (>95%) peptides, 5 nM NLpoly11S, 500 nM NLpep114 (Example 137)

Time within which the decline in luminescence occurs (BRD4/Histone H3.3; 0-500 nM IBET-151, time course): ≤ 3 h | Effect on luminescence of NLpoly11S-BRD4 / Histone H3.3-NLpep114 (BRD4/Histone H3.3; 0 to 10 μM, 4 h at 37° C.): dose-dependent decline in luminescence
Molecule: COc1cc2c(cc1-c1c(C)noc1C)ncc1[nH]c(=O)n([C@H](C)c3ccccn3)c12 [IBET-151]

Molecule: BC21: MVSGWRLFKKIS-GGSGGGGSGG-Fluc
Relative brightness of construct (Fluc and NLpep86 signals) (HELA cells): brightest

Molecule: BC26: MVSGWRLFKKIS-GGSGGGGSGG-Fluc-CP
Relative brightness of construct (Fluc and NLpep86 signals) (HELA cells): least bright

Molecule: DAB-GWALFKK ({Dabcyl′}-GWALFKK) [Dabcyl-GWALFKK]
Background luminescence generated by NLpoly11S in the absence of other luminogenic peptide (NLpoly11S [1]): reduce the background luminescence generated by NLpoly11S

Molecule: GWALFKK
Background luminescence generated by NLpoly11S in the absence of other luminogenic peptide (NLpoly11S [1]): reduce the background luminescence generated by NLpoly11S

Molecule: NLpep88: NLpep78 with Gly as 6th residue instead of Arg, HT fusion lysate (MNVSGWGLFKKISN; also: HT fusion (lysate))
Luminescence with NLpoly 5P (NLpoly 5P): no increase in luminescence above 5P alone at lower concentrations

Molecule: NVSGWRLFKKISN [NLPep78]
Binding affinity to NLpoly11S: synthetic vs N- or C-terminal HaloTag fusion (NLpoly11S [2]): not found to change significantly | Bmax with NLpoly11S when NLPep at the C-terminus of HaloTag (NLpoly11S [2]): reduced

Molecule: NVTGYRLFKKISN [NLPep79]
Binding affinity to NLpoly11S: synthetic vs N- or C-terminal HaloTag fusion (NLpoly11S [2]): not found to change significantly | Bmax with NLpoly11S when NLPep at the C-terminus of HaloTag (NLpoly11S [2]): reduced

Molecule: VSGWALFKKIS [Ala-162]
Inhibition of generation of luminescence by CP Nluc [3]: > 2 logs | Signal of dark peptide with NLpoly11S on its own (NLpoly11S and NLpep114; 5 nM NLpoly11S): subtle at best | Inhibition of binding between NLpoly11S and NLpep114 (NLpoly11S and NLpep114; [5]): dose-dependent | Inhibition of binding between NLpoly11S and NLpep114 (NLpoly11S and NLpep114; high purity (>95%) peptides, 5 nM NLpoly11S, 500 nM NLpep114 (Example 137), listed as Ala peptide): most potent as an inhibitor

Molecule: VSGWQLFKKIS [Gln-162]
Inhibition of generation of luminescence by CP Nluc [3]: > 1 logs | Signal of dark peptide with NLpoly11S on its own (NLpoly11S and NLpep114; 5 nM NLpoly11S): produces a signal on its own in a dose-dependent manner | Inhibition of binding between NLpoly11S and NLpep114 (NLpoly11S and NLpep114; array peptides, 50 nM NLpoly11S, 7.5 μM NLpep114 (Example 136)): dose-dependent | Inhibition of binding between NLpoly11S and NLpep114 (NLpoly11S and NLpep114; [5]): dose-dependent

Molecule: VTGWALFEEIL
Luminescence relative to background (NLpoly11S alone; no peptide control) (NLpoly11S [1]): induce luminescence over background

Molecule: VTGYALFEEIL
Luminescence relative to background (NLpoly11S alone; no peptide control) (NLpoly11S [1]): induce luminescence over background

B1: wt 1-156: Wild-Type Oplophorus Luciferase Residues 1-156 (protein)
chain: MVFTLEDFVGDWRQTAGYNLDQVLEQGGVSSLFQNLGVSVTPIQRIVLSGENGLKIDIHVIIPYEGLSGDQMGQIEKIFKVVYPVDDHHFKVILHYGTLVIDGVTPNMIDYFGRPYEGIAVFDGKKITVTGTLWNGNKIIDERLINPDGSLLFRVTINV
Relative specific activity (*with wt 157-169 peptide) [4]: 0.07*

B2: NanoLuc: full-length NanoLuc luciferase (Promega), SEQ ID NO: 2157 (protein)
chain: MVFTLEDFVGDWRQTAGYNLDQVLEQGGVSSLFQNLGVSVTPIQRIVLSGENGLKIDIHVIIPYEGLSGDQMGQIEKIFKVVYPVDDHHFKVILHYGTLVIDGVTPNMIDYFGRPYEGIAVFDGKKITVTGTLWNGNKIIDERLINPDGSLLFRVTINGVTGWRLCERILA
Relative specific activity (*with wt 157-169 peptide) [4]: 1.00
